Measured values published in ChEMBL document CHEMBL5442175, “EUbOPEN Chemogenomics Library - PDSP Secondary Binding” (2024).
Where a name gives a salt, the structure may show the parent alone.

What was measured:
[1] = target: Kappa-type opioid receptor (Homo sapiens, UniProt P41145); assay: (§1) PDSP Secondary Binding target: OPRK1 - Compounds are tested at 10 uM concentration, plate are incubated at room temperature in the dark for 90 minutes. Reaction are stopped by vacuum filtration onto 0.3% polyethyleneimine soaked filter mats using Filtermate harvester. Scintillation cocktail is then melted onto microwave-dried filters on a hot plate and the radio activity is counted in Microbia counter.
Chain of Kappa-type opioid receptor (P41145 whole entry): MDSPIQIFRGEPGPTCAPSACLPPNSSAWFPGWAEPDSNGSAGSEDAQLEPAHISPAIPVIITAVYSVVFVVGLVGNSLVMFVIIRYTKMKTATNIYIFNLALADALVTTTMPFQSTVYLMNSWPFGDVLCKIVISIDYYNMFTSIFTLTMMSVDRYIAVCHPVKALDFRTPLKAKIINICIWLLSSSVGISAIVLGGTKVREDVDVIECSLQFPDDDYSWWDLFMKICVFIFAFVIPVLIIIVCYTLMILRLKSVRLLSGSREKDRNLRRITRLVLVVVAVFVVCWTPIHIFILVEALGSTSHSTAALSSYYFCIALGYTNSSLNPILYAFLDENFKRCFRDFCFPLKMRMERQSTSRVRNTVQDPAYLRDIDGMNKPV

[2] = target: Histamine H3 receptor (Homo sapiens, UniProt Q9Y5N1); assay: as §1, with “HRH3” for “OPRK1”
Chain of Histamine H3 receptor (Q9Y5N1 whole entry): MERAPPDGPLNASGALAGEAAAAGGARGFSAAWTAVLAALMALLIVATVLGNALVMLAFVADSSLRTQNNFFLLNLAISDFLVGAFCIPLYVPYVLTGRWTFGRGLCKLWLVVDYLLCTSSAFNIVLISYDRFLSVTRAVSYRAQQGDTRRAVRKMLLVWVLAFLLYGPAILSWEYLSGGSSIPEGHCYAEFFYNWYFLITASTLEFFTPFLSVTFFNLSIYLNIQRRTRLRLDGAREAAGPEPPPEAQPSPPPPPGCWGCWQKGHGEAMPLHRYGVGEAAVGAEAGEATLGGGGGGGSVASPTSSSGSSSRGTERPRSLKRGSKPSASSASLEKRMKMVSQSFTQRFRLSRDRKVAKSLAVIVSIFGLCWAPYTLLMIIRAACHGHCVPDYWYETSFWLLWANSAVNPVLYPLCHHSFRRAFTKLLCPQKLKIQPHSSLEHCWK

[3] = target: T1, Muscarinic acetylcholine receptor M4 (Homo sapiens, UniProt P08173); assay: as §1, with “CHRM4” for “OPRK1”
T1 sequence (P08173 whole entry): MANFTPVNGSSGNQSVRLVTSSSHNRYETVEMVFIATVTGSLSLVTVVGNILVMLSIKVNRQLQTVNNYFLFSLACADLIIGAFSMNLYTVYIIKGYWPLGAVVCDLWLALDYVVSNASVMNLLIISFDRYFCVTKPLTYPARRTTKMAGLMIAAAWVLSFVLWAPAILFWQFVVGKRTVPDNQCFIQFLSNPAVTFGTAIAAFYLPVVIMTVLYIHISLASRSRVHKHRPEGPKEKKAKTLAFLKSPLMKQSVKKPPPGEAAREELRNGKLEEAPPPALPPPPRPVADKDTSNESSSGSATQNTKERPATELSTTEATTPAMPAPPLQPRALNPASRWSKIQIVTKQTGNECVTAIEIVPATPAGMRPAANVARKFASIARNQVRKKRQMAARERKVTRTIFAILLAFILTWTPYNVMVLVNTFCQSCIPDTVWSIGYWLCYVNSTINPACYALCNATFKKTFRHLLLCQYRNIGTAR

[4] = target: Histamine H2 receptor (Homo sapiens, UniProt P25021); assay: as §1, with “HRH2” for “OPRK1”
Chain of Histamine H2 receptor (P25021 whole entry): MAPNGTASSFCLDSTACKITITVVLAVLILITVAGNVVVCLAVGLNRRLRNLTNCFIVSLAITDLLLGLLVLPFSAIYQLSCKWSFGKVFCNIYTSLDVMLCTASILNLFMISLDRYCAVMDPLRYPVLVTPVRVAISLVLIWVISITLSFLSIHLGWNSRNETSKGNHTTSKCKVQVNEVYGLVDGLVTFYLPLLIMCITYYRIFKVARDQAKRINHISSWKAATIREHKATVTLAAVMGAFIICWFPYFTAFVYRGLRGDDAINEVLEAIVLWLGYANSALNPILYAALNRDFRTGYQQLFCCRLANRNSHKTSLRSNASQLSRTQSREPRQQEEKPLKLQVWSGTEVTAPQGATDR

[5] = target: Beta-3 adrenergic receptor (Homo sapiens, UniProt P13945); assay: as §1, with “ADRB3” for “OPRK1”
Chain of Beta-3 adrenergic receptor (P13945 whole entry): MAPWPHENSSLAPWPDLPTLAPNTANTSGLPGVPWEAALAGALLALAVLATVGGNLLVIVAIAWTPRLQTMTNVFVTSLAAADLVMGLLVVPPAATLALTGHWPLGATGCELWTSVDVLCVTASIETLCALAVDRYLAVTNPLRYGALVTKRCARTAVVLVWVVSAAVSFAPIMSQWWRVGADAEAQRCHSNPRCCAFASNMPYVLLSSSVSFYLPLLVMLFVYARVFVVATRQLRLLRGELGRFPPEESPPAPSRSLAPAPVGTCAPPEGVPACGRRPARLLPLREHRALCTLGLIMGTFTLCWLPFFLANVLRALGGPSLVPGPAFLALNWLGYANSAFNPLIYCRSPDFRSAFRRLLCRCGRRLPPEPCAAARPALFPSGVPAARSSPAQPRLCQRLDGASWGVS

[6] = target: T2, Muscarinic acetylcholine receptor M2 (Homo sapiens, UniProt P08172); assay: as §1, with “CHRM2” for “OPRK1”
T2 sequence (P08172 whole entry): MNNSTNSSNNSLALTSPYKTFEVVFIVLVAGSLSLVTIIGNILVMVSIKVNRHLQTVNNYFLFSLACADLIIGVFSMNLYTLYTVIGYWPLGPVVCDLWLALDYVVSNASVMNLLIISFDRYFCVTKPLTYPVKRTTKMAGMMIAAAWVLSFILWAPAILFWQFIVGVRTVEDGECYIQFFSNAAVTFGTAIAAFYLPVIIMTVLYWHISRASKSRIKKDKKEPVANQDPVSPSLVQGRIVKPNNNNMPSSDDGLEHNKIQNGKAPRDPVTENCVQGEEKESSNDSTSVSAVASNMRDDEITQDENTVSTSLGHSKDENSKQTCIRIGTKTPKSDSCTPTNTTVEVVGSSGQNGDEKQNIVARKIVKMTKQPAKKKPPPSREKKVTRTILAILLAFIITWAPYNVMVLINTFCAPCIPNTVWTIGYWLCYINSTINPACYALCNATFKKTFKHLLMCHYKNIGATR

[7] = target: Histamine H4 receptor (Homo sapiens, UniProt Q9H3N8); assay: as §1, with “HRH4” for “OPRK1”
Chain of Histamine H4 receptor (Q9H3N8 whole entry): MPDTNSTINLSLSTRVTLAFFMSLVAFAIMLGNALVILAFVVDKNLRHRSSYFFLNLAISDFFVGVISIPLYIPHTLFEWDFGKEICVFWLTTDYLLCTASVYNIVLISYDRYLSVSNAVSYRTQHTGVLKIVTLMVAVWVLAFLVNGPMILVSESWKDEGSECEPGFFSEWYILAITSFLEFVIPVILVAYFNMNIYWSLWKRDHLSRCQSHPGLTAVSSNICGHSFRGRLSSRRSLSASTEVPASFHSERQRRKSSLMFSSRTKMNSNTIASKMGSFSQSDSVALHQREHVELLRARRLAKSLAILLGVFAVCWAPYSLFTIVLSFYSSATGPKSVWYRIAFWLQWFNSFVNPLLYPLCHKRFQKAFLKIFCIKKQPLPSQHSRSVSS

[8] = target: Beta-1 adrenergic receptor (Homo sapiens, UniProt P08588); assay: as §1, with “ADRB1” for “OPRK1”
Chain of Beta-1 adrenergic receptor (P08588 whole entry): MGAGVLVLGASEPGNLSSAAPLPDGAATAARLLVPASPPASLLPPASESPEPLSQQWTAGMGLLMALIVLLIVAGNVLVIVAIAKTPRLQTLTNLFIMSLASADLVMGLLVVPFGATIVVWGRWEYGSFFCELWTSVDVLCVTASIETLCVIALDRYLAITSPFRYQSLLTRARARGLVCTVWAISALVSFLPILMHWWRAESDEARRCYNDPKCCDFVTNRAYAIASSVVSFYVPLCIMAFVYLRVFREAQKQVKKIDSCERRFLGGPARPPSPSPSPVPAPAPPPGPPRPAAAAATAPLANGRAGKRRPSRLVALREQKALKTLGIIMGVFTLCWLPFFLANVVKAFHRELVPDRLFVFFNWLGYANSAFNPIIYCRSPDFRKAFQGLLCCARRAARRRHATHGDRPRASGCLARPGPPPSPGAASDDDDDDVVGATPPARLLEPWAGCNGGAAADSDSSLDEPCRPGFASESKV

[9] = target: T3, 5-hydroxytryptamine receptor 3A (Homo sapiens, UniProt P46098); assay: as §1, with “HTR3A” for “OPRK1”
T3 sequence (P46098 whole entry): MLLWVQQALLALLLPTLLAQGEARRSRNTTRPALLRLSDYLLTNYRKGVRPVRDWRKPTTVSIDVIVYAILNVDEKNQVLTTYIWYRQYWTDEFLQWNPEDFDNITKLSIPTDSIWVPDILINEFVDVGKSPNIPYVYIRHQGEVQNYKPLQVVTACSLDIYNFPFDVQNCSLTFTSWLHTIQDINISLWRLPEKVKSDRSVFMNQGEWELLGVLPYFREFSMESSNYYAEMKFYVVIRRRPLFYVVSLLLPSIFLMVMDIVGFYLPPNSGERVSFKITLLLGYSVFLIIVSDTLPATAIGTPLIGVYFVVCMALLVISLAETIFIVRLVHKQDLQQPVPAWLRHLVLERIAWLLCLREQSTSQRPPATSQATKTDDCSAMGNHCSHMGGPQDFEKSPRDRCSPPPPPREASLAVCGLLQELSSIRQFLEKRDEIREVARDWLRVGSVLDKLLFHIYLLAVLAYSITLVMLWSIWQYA

[10] = target: Beta-2 adrenergic receptor (Homo sapiens, UniProt P07550); assay: as §1, with “ADRB2” for “OPRK1”
Chain of Beta-2 adrenergic receptor (P07550 whole entry): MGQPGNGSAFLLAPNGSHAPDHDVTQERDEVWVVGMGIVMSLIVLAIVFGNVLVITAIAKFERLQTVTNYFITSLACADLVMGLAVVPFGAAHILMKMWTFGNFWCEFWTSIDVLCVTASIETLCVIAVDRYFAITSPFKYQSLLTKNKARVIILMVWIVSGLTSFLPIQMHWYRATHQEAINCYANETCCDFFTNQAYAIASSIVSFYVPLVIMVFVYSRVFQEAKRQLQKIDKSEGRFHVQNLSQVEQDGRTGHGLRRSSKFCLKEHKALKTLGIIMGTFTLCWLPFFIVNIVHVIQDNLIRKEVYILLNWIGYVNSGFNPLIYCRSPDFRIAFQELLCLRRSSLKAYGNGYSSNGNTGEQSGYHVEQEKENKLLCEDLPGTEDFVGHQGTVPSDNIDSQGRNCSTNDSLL

[11] = target: Translocator protein (Homo sapiens, UniProt P30536); assay: as §1, with “TSPO” for “OPRK1”
Chain of Translocator protein (P30536 whole entry): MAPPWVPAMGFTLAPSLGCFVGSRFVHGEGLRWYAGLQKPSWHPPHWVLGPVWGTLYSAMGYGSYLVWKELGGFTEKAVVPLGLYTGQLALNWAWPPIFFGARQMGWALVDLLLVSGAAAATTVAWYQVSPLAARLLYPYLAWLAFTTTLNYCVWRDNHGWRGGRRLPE

[12] = target: Delta-type opioid receptor (Homo sapiens, UniProt P41143); assay: as §1, with “OPRD1” for “OPRK1”
Chain of Delta-type opioid receptor (P41143 whole entry): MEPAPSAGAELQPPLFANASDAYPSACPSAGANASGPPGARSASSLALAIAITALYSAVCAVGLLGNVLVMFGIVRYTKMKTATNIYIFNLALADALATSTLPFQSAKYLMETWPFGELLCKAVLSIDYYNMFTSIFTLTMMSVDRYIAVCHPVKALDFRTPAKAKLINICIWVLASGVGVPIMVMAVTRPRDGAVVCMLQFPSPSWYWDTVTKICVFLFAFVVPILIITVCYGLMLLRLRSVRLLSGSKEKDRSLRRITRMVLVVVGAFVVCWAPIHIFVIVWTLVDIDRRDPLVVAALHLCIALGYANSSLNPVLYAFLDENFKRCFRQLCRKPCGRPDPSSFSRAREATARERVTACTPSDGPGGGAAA

For S=C(NCCCc1c[nH]cn1)NCCCN(Cc1ccc(Cl)c(Cl)c1)c1ccc(Br)cn1, the Ki [1] was 1110 nM and the Ki [2] was 104 nM.
Work on Cc1c(P(=S)(c2ccccc2)c2ccccc2)n2ccccc2[n+]1C/C=C/c1ccccc1 yielded a Ki [3] of 854 nM, a Ki [1] of 118 nM and a Ki [4] of 2960 nM. For the same molecule, the Ki [5] was 2050 nM and the Ki [6] was 805 nM.
Work on COc1cc(-n2cnc3cc(-c4ccc(Cl)cc4)sc3c2=O)ccc1OCCN1CCCC1 yielded a Ki [7] of over 10000 nM and a Ki [3] of 1700 nM.
Clc1cccc(COc2cncc(N3CCNCC3)n2)c1 showed a Ki [3] of 444 nM, a Ki [8] of 2030 nM and a Ki [9] of 63.7 nM.
Work on CN1CCN(c2ccc(Nc3c4ccccc4nc4ccccc34)cc2)CC1 yielded a Ki [10] of 810 nM, a Ki [2] of 82.4 nM and a Ki [6] of 204 nM.
COc1ccc(NC(=O)c2ccc(-c3ccc(-c4noc(C)n4)cc3C)cc2)cc1OCCN(C)C gave a Ki [2] of 709 nM and a Ki [6] of 641 nM.
CCc1ccc(OCc2ccccc2C(=O)Nc2ccc3nc(C)cc(N)c3c2)cc1 gave a Ki [3] of 1960 nM, a Ki [11] of 4010 nM and a Ki [5] of 6310 nM.
Molecule CN1CCCC(n2nc(Cc3ccc(Cl)cc3)c3ccccc3c2=O)CC1 (stereo not drawn) [AZELASTINE HYDROCHLORIDE] has a Ki [5] of over 10000 nM.
O=c1ccc2ccc(OCCCCN3CCN(c4cccc5sccc45)CC3)cc2[nH]1 [BREXPIPRAZOLE] showed a Ki [10] of 969 nM, a Ki [9] of 1530 nM and a Ki [2] of 2610 nM.
CN(C)C(=O)N[C@H]1CC[C@H](CCN2CCN(c3cccc(Cl)c3Cl)CC2)CC1 [CARIPRAZINE HYDROCHLORIDE] gave a Ki [3] of 779 nM and a Ki [8] of 222 nM.
With O=S1(=O)c2cccc3cccc(c23)N1CCCN1CCN(c2ccc(F)cc2)CC1 [FANANSERIN] the Ki [1] was 2870 nM.
In the case of Cc1ccc2c(c1)c1c(n2CCc2ccc(C)nc2)CCN(C)C1 [LATREPIRDINE], the Ki [4] is reported as 215 nM.
CCc1nn(CCCN2CCN(c3cccc(Cl)c3)CC2)c(=O)n1CCOc1ccccc1 [NEFAZODONE HYDROCHLORIDE] gave a Ki [11] of 1990 nM.
With COC(=O)C1=C(C)NC(C)=C(C(=O)OCCCN2CCC(c3ccccc3)(c3ccccc3)CC2)[C@H]1c1cccc([N+](=O)[O-])c1 [NIGULDIPINE] the Ki [11] was 953 nM, the Ki [12] was 399 nM and the Ki [1] was 347 nM. For the same molecule, the Ki [2] was 2140 nM.
Cc1nc2sccn2c(=O)c1CCN1CCC(=C(c2ccc(F)cc2)c2ccc(F)cc2)CC1 [RITANSERIN] gave a Ki [1] of 1450 nM.
In the case of C[C@H](Cc1cc2c(c(C(N)=O)c1)N(CCCO)CC2)NCCOc1ccccc1OCC(F)(F)F [SILODOSIN], the Ki [10] is reported as 32.8 nM.
For CCCCCNC(=N)N/N=C/c1c[nH]c2ccc(OC)cc12 [TEGASEROD MALEATE], the Ki [9] was 5840 nM and the Ki [5] was 4940 nM.
N#Cc1ccc2[nH]cc(CCCCN3CCN(c4ccc5oc(C(N)=O)cc5c4)CC3)c2c1 [VILAZODONE HYDROCHLORIDE] gave a Ki [10] of 2490 nM.
